Test system: PDE1
Assay: In vitro HTRF PDE1 inhibition assay
Format: biochemical
Details: HTRF cGMP assay, 100 nM cyclic GMP, PDE (1A3, 1B or 1C) with calmodulin, 45 minutes at 37° C.; isoform of the tabulated values not stated
From the text: An exemplary procedure for the in vitro Homogenous Time Resolved Fluorescence assay, which can be used to determine the inhibitory action of compounds of the invention toward. PDE1 or its isoforms, follows.
The HTRF PDE1 assay utilized the HTRF (Homogenous Time Resolved Fluorescence) technology, which is based on the competition between unlabeled cyclic nucleotide and cyclic nucleotide labeled with XL665 for the binding to cyclic nucleotide-specific antibody labeled with cryptate. The HTRF signal is thus inversely proportional to the concentration of cyclic nucleotide being measured. Since phosphodiesterases break down cyclic nucleotides the HTRF signal was used to determine PDE activity.
The Cisbio cGMP HTRF assay kit (Cat no: 62GM2PEC) was utilized. Cyclic GMP was diluted to 200 nM in HTRF assay buffer (1 mM CaCl2, 10 mM MgCl2, 10 mM Tris-HCl, 0.1% BSA, pH7.4). 10 μl of compound or DMSO was diluted in 200 nM cyclic GMP solution and added to wells of a 96 well white plate to give 100 nM cyclic GMP in 1% DMSO final concentration. PDE (1A3, 1B or 1C) was diluted to 2× working concentration in HTRF assay buffer with […] Calmodulin, and 10 μl was added to initiate the reaction. The plate was then incubated for 45 minutes at 37° C. d2-Labelled cyclic GMP and anti-cGMP cryptate were diluted in 50 mM phosphate buffer, 0.8M KF, 1% Triton X100, 0.2% BSA, pH7.0. Following incubation 10 μl d2-cGMP, then 10 μl anti cGMP cryptate were added to each well and the plate was incubated for 45 minutes at room temperature. The plate was then read on Perkin Elmer Victor at 2 different FRET readings ex/emm 340 nm/665 nm and 340 nm/615 nm.
Compounds having an IC50 of <1 μM, are denoted as +++. Compounds having an IC50 of 1-10 μM, are denoted as ++. Compounds having an IC50 of >10 μM, are denoted as +.

IC50	SMILES
1000 to 10000 nM	CCCn1ncc2c(=O)n3c(nc21)CN(Cc1ccc2c(c1)OCO2)CC3 [Compound I-255, 8-(Benzo[d][1,3]dioxol-5-ylmethyl)-1-propyl-6,7,8,9-tetrahydropyrazino[1,2-a]pyrazolo[3,4-d]pyrimidin-4(1H)-one]
1000 to 10000 nM	COc1ccccc1N1CCn2c(nc3c(cnn3C(C)C)c2=O)C1 [Compound I-94, 1-Isopropyl-8-(2-methoxyphenyl)-6,7,8,9-tetrahydropyrazino[1,2-a]pyrazolo[3,4-d]pyrimidin-4(1H)-one]
< 1000 nM	COc1ccc(CN2CCn3c(nc4c(cnn4C4CCCC4)c3=O)C2)cc1 [Compound I-84, 1-Cyclopentyl-8-(4-methoxybenzyl)-6,7,8,9-tetrahydropyrazino[1,2-a]pyrazolo[3,4-d]pyrimidin-4(1H)-one]
1000 to 10000 nM	COc1ccc(CN2CCn3c(nc4c(C5CCCC5)noc4c3=O)C2)cc1 [Compound I-129, 3-Cyclopentyl-6-(4-methoxybenzyl)-7,8-dihydro-5H-isoxazolo[4,5-d]pyrazino[1,2-a]pyrimidin-10(6H)-one]
1000 to 10000 nM	O=c1c2cnn(C3CCCC3)c2nc2n1CCN(c1cccc(Cl)c1)C2 [Compound I-90, 8-(3-Chlorophenyl)-1-cyclopentyl-6,7,8,9-tetrahydropyrazino[1,2-a]pyrazolo[3,4-d]pyrimidin-4(1H)-one]
< 1000 nM	O=c1c2cnn(C3CCOCC3)c2nc2n1CCN(c1ccc(Cl)cc1)C2 [Compound I-212, 8-(4-Chlorophenyl)-1-(tetrahydro-2H-pyran-4-yl)-6,7,8,9-tetrahydropyrazino[1,2-a]pyrazolo[3,4-d]pyrimidin-4(1H)-one]
1000 to 10000 nM	COc1ccc(CN2Cc3nc4c(cnn4C(C)C)c(=O)n3CC2C)cc1 (racemic) [Compound I-146, (±)-1-Isopropyl-8-(4-methoxybenzyl)-7-methyl-6,7,8,9-tetrahydropyrazino[1,2-a]pyrazolo[3,4-d]pyrimidin-4(1H)-one]
> 10000 nM	CC(C)n1ncc2c(=O)n3c(nc21)C(Cc1ccccc1)N(C)CC3 (racemic) [Compound I-25, (±)-9-Benzyl-1-isopropyl-8-methyl-6,7,8,9-tetrahydropyrazino[1,2-a]pyrazolo[3,4-d]pyrimidin-4(1H)-one]
1000 to 10000 nM	CC(C)n1ncc2c(=O)n3c(nc21)CN(Cc1ccc2c(c1)OCO2)CC3 [Compound I-170, 8-(Benzo[d][1,3]dioxol-5-ylmethyl)-1-isopropyl-6,7,8,9-tetrahydropyrazino[1,2-a]pyrazolo[3,4-d]pyrimidin-4(1H)-one]
> 10000 nM	CN1CCn2c(nc3c(cnn3C)c2=O)C1Cc1ccccc1 (racemic) [Compound I-24, (±)-9-Benzyl-1,8-dimethyl-6,7,8,9-tetrahydropyrazino[1,2-a]pyrazolo[3,4-d]pyrimidin-4(1H)-one]
> 10000 nM	CC1c2nc3c(cnn3C(C)C)c(=O)n2CCN1Cc1ccccc1 (racemic) [Compound I-32, (±)-8-Benzyl-1-isopropyl-9-methyl-6,7,8,9-tetrahydropyrazino[1,2-a]pyrazolo[3,4-d]pyrimidin-4(1H)-one]
1000 to 10000 nM	CC(C)n1ncc2c(=O)n3c(nc21)CN(c1ccccc1Cl)CC3 [Compound I-85, 8-(2-Chlorophenyl)-1-isopropyl-6,7,8,9-tetrahydropyrazino[1,2-a]pyrazolo[3,4-d]pyrimidin-4(1H)-one]
> 10000 nM	CN1CCn2c(nc3c(cnn3-c3ccccc3)c2=O)C1 [Compound I-19, 8-Methyl-1-phenyl-6,7,8,9-tetrahydropyrazino[1,2-a]pyrazolo[3,4-d]pyrimidin-4(1H)-one]
< 1000 nM	CCOc1cc(N2CCn3c(nn4c(C5CCCC5)ncc4c3=O)C2)ccc1F [Compound I-184, 3-Cyclopentyl-7-(3-ethoxy-4-fluorophenyl)-8,9-dihydro-6H-imidazo[5,1-f]pyrazino[2,1-c][1,2,4]triazin-11(7H)-one]
< 1000 nM	CC(C)n1ncc2c(=O)n3c(nc21)CN(Cc1ccc(Cl)c(Cl)c1)CC3 [Compound I-169, 8-(3,4-Dichlorobenzyl)-1-isopropyl-6,7,8,9-tetrahydropyrazino[1,2-a]pyrazolo[3,4-d]pyrimidin-4(1H)-one]
> 10000 nM	CC(C)c1ncc2c(=O)n3c(nn12)CN(Cc1cncnc1)CC3 [Compound I-192, 3-Isopropyl-7-(pyrimidin-5-ylmethyl)-8,9-dihydro-6H-imidazo[5,1-f]pyrazino[2,1-c][1,2,4]triazin-11(7H)-one]

IC50	SMILES
< 1000 nM	COc1ccc(CN2CCn3c(nc4c(cnn4CC(C)C)c3=O)C2)cc1 [Compound I-83, 1-Isobutyl-8-(4-methoxybenzyl)-6,7,8,9-tetrahydropyrazino[1,2-a]pyrazolo[3,4-d]pyrimidin-4(1H)-one]
1000 to 10000 nM	COc1ccc(CN2Cc3nc4c(cnn4C4CCCC4)c(=O)n3C(C)C2)cc1 (racemic) [Compound I-122, (±)-1-Cyclopentyl-8-(4-methoxybenzyl)-6-methyl-6,7,8,9-tetrahydropyrazino[1,2-a]pyrazolo[3,4-d]pyrimidin-4(1H)-one]
< 1000 nM	CC(C)n1ncc2c(=O)n3c(nc21)CN(Cc1cccnc1)CC3 [Compound I-135, 1-Isopropyl-8-(pyridin-3-ylmethyl)-6,7,8,9-tetrahydropyrazino[1,2-a]pyrazolo[3,4-d]pyrimidin-4(1H)-one]
1000 to 10000 nM	COc1ccc(CN2CCn3c(nc4c(cnn4C4CCOCC4)c3=O)C2)cc1 [Compound I-210, 8-(4-Methoxybenzyl)-1-(tetrahydro-2H-pyran-4-yl)-6,7,8,9-tetrahydropyrazino[1,2-a]pyrazolo[3,4-d]pyrimidin-4(1H)-one]
< 1000 nM	COc1cccc(N2CCn3c(nc4c(cnn4C(C)C)c3=O)C2)c1 [Compound I-97, 1-Isopropyl-8-(3-methoxyphenyl)-6,7,8,9-tetrahydropyrazino[1,2-a]pyrazolo[3,4-d]pyrimidin-4(1H)-one]
1000 to 10000 nM	O=c1c2onc(C3CCCC3)c2nc2n1CCN(Cc1ccc(Cl)cc1)C2 [Compound I-130, 6-(4-Chlorobenzyl)-3-cyclopentyl-7,8-dihydro-5H-isoxazolo[4,5-d]pyrazino[1,2-a]pyrimidin-10(6H)-one]
< 1000 nM	CC1Cn2c(nc3c(cnn3C(C)C)c2=O)CN1Cc1ccc(F)cc1 (racemic) [Compound I-148, (±)-8-(4-Fluorobenzyl)-1-isopropyl-7-methyl-6,7,8,9-tetrahydropyrazino[1,2-d]pyrazolo[3,4-d]pyrimidin-4(1H)-one]
> 10000 nM	CC(C)n1ncc2c(=O)n3c(nc21)CNC(Cc1ccccc1)C3 (racemic) [Compound I-109, (±)-7-Benzyl-1-isopropyl-6,7,8,9-tetrahydropyrazino[1,2-a]pyrazolo[3,4-d]pyrimidin-4(1H)-one]
1000 to 10000 nM	CC(C)n1ncc2c(=O)n3c(nc21)CN(Cc1ccncc1)CC3 [Compound I-136, 1-Isopropyl-8-(pyridin-4-ylmethyl)-6,7,8,9-tetrahydropyrazino[1,2-a]pyrazolo[3,4-d]pyrimidin-4(1H)-one]
< 1000 nM	CC(C)Cn1ncc2c(=O)n3c(nc21)CN(Cc1cccc(Cl)c1)CC3 [Compound I-71, 8-(3-Chlorobenzyl)-1-isobutyl-6,7,8,9-tetrahydropyrazino[1,2-a]pyrazolo[3,4-d]pyrimidin-4(1B)-one]
> 10000 nM	O=c1c2cn[nH]c2nc2n1CCNC2Cc1ccccc1 (racemic) [Compound I-6, (±)-9-Benzyl-6,7,8,9-tetrahydropyrazino[1,2-a]pyrazolo[3,4-d]pyrimidin-4(1H)-one]
> 10000 nM	CC(C)c1nn(C)c2c(=O)n3c(nc12)CN(Cc1ccccc1)CC3 [Compound I-46, 6-Benzyl-3-isopropyl-1-methyl-5,6,7,8-tetrahydropyrazino[1,2-a]pyrazolo[4,3-d]pyrimidin-10(1H)-one]
1000 to 10000 nM	Cc1ncc(CN2CCn3c(nc4c(cnn4C4CCCC4)c3=O)C2)cn1 [Compound I-195, 1-Cyclopentyl-8-((2-methylpyrimidin-5-yl)methyl)-6,7,8,9-tetrahydropyrazino[1,2-a]pyrazolo[3,4-d]pyrimidin-4(1H)-one]
< 1000 nM	CC(C)n1ncc2c(=O)n3c(nc21)CN(Cc1cccc(-c2ccccc2)c1)CC3 [Compound I-65, 8-([1,1′-Biphenyl]-3-ylmethyl)-1-isopropyl-6,7,8,9-tetrahydropyrazino[1,2-a]pyrazolo[3,4-d]pyrimidin-4(1H)-one]
> 10000 nM	CN1CCn2c(nc3c(cnn3C)c2=O)C1 [Compound I-17, 1,8-Dimethyl-6,7,8,9-tetrahydropyrazino[1,2-a]pyrazolo[3,4-d]pyrimidin-4(1H)-one]
1000 to 10000 nM	COCCn1ncc2c(=O)n3c(nc21)CN(c1ccc(Cl)c(Cl)c1)CC3 [Compound I-257, 8-(3,4-Dichlorophenyl)-1-(2-methoxyethyl)-6,7,8,9-tetrahydropyrazino[1,2-a]pyrazolo[3,4-d]pyrimidin-4(1H)-one]

Source: patent US20160083391A1, “TRICYCLIC PIPERAZINE DERIVATIVE” (Sunovion Pharmaceuticals Inc., priority 2014, published 2016)
